Assay results published in article PMC5773580, “A synthetic combinatorial approach to disabling deviant Hedgehog signaling” (Scientific Reports, 2018).
“And” between values parts separate entries of the source, which are not always exact repeats. Identical values can stand only once.

What was measured:
HDAC4 = biological target: T1, HDAC4 (Homo sapiens, UniProt P56524); experiment: In vitro HDAC profiling (deacetylation assay), HDAC4; type: biochemical; details: for HDAC Activity (Fluorescent counts): Repeat1/Repeat 2
T1 construct: purchased BPS Bioscience #50051-11
T1 sequence (P56524 whole entry): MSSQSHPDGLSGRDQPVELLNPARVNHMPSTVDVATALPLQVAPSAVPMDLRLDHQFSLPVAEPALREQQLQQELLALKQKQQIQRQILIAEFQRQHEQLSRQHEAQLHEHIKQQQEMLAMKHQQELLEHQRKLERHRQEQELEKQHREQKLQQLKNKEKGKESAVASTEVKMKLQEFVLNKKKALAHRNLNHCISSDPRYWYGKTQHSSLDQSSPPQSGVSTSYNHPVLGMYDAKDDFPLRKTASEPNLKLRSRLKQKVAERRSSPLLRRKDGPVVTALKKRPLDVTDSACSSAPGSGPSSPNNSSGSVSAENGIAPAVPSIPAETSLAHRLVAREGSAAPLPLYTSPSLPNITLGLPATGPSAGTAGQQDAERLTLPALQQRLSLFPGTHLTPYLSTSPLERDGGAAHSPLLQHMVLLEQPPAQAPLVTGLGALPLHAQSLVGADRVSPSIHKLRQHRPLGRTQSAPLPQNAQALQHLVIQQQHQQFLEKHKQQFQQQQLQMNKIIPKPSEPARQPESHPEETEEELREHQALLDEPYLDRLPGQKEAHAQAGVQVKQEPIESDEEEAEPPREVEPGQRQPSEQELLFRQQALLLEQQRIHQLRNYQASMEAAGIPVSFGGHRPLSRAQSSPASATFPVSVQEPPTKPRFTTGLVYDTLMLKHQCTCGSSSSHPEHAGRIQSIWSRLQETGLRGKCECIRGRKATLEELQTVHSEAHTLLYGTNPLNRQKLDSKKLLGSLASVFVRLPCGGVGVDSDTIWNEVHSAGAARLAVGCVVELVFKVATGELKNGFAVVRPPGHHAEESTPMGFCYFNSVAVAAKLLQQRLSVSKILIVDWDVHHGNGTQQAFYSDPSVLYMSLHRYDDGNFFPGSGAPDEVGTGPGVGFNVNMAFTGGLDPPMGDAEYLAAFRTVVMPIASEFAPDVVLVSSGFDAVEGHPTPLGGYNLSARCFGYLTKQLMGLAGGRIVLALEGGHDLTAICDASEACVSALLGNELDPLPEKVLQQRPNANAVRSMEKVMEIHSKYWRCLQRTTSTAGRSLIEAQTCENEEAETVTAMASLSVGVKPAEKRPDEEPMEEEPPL
Description: (§1) HDAC profiling was performed at BPS Bioscience (San Diego, CA). All of the compounds are dissolved in DMSO. A series of dilutions of the compounds were prepared with 10% DMSO in HDAC assay buffer (#50031) and 5 µl of the dilution was added to a 50 µl reaction so that the final concentration of DMSO is 1% in all of reactions. All of the enzymatic reactions were conducted in duplicate at 37 °C for 30 mins, except that the enzyme reactions for HDAC11 were at room temperature for 3 hrs. All of the reactions were performed in a 50 µl mixture containing HDAC assay buffer, 5 µg BSA, an HDAC substrate [HDAC Substrate 3 (BPS number 50037) or HDAC Class 2a Substrate 1 (BPS number 50040)], an HDAC enzyme (#50051-11) and a test compound. After enzymatic reactions, 50 μl of HDAC Developer (#50030) was added to each well and the plate was incubated at room temperature for an additional 20 mins. Fluorescence intensity was measured at an excitation of 360 nm and an emission of 460 nm using a Tecan Infinite M1000 microplate reader. HDAC activity assays were performed in duplicates at each concentration. The fluorescent intensity data were analyzed using the computer software, Graphpad Prism. In the absence of the compound, the fluorescent intensity (Ft) in each data set was defined as 100% activity. In the absence of HDAC, the fluorescent intensity (Fb) in each data set was defined as 0% activity. The percent activity in the presence of each compound was calculated according to the following equation: %activity = (F − Fb)/(Ft − Fb), where F = the fluorescent intensity in the presence of the compound. The values of % activity versus a series of compound concentrations were then plotted using non-linear regression analysis of Sigmoidal dose-response curve generated with the equation Y = B + (T − B)/1 + 10((LogIC50 − X) × Hill Slope), where Y = percent activity, B = minimum percent activity, T = maximum percent activity, X = logarithm of compound and Hill Slope = slope factor or Hill coefficient. The IC50 value was determined by the concentration causing a half-maximal percent activity.

HDAC9 = biological target: T2, HDAC9 (Homo sapiens, UniProt Q9UKV0); experiment: In vitro HDAC profiling (deacetylation assay), HDAC9; type: biochemical; details: for HDAC Activity (Fluorescent counts): Repeat1/Repeat 2
T2 construct: purchased BPS Bioscience #50051-11
T2 sequence (Q9UKV0 whole entry): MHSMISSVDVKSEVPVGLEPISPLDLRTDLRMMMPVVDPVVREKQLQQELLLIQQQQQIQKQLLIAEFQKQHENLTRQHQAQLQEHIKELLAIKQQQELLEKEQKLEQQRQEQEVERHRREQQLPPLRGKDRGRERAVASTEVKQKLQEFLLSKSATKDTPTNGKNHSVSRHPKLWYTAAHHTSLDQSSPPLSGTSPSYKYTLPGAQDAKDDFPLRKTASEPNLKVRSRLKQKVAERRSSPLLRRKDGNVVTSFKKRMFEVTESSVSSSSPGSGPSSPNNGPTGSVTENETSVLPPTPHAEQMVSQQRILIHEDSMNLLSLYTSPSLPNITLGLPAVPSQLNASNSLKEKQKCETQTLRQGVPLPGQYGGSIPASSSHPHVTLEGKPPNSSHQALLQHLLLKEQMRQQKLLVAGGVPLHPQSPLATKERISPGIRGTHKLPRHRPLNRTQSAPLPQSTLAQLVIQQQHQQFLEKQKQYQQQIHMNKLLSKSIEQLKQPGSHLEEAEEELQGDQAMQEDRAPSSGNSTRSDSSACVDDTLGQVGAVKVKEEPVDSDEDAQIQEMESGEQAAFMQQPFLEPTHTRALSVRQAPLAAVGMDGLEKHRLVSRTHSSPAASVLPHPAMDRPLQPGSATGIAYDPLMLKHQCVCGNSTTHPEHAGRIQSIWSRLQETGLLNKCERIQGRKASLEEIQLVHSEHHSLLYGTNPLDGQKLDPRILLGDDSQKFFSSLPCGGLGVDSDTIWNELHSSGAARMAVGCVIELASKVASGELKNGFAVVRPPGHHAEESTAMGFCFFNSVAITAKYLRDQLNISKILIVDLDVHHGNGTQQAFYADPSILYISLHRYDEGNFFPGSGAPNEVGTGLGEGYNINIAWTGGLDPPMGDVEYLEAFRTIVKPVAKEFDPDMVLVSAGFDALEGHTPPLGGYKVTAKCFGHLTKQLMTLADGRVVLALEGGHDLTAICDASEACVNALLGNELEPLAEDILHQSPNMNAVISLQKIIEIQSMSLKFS
Description: as §1

[1] = test system: SHH-induced GLI activity (GLI-BS reporter) in NIH3T3; experiment: HH pathway reporter (GLI-BS reporter) assay, +Shh in NIH3T3; type: cell-based; details: Mus musculus; +Shh in NIH3T3, 48 hrs with compound
Description: (§2) The HH-responsive firefly luciferase reporter (GLI-BS) and a control Renilla luciferase reporter (SV40-RL) were transfected into indicated cell lines using Effectene (Qiagen) either alone or with indicated DNAs. 24 hrs after transfection, cells were switched to low serum media (3% calf serum), and grown for another 48 hrs. in 5% CO2 in the presence/absence of compounds. 3T3-ShhFL cell line that stably expressing SHH and the two reporters were cultured in a similar fashion. FL and RL activities in lysate generated using Passive Lysis Buffer (Promega) were then assessed using the Dual-Luciferase kit (Promega) and a 96-well plate reading luminometer (BMG). The ratio of FL/RL was calculated and the averaged ratios from three replicates were reported.

[2] = test system: SMO-M2 in NIH3T3 (GLI-BS reporter); experiment: GLI-BS reporter assay, NIH3T3 cells with SMO-M2 DNA; type: cell-based; details: Mus musculus
Description: as §2

[3] = test system: SMO-L412F in NIH3T3 (GLI-BS reporter); experiment: GLI-BS reporter assay, NIH3T3 cells with SMO-L412F DNA; type: cell-based; details: Mus musculus
Description: as §2

[4] = test system: RMS13 cells (GLI1 amp), GLI-BS reporter; experiment: GLI-BS reporter assay in RMS13 cells (GLI1 amplification); type: cell-based
Description: as §2

[5] = test system: GLI1 binding to DNA in RMS13 cells; experiment: GLI DNA binding assay (biotinylated oligo pulldown); type: cell-based; details: lysate of RMS13 cells treated 48 hrs
Description: A detailed protocol for DNA binding assay was previously described. Briefly, cells treated for 48 hrs with compounds were lysed in 1% NP40/phosphate buffered saline/protease inhibitors and cleared using a microcentrifuge. The lysate was then incubated with 0.5 µM of double-strand biotinylated oligonucleotides and 40 µl streptavidin-agarose bead suspension (Thermo Scientific, 20349) for 2 hrs. The streptavidin agarose beads are washed (3X) with 1% NP40/phosphate buffered saline/protease inhibitors and eluted with 2X Laemmli sample buffer. The supernatants are separated on SDS-PAGE and analyzed using western blotting. Antibodies were purchased from the following vendors: GLI1 (Cell Signaling Technology, #2534) and actin (SIGMA, #A5441).

[6] = in vitro deacetylation assay, duplicates

In the case of `O=C(CCCCCCC(=O)Nc1ccc(Cl)c(C(=O)Nc2ccc(NC(=O)c3cc(Cl)ccc3Cl)cc2)c1)NO` [IHR-SAHA], the “HDAC Activity (Fluorescent counts)” value (HDAC4; HDAC4, WW01 0 Log nM) is reported as 34281 Fluorescent counts and 35156 Fluorescent counts, the “HDAC Activity (Fluorescent counts)” value (HDAC4; HDAC4, WW01 0.5 Log nM) is reported as 35257 Fluorescent counts and 33365 Fluorescent counts and the “HDAC Activity (Fluorescent counts)” value (HDAC4; HDAC4, WW01 1 Log nM) is reported as 34132 Fluorescent counts and 32561 Fluorescent counts. The “HDAC Activity (Fluorescent counts)” value (HDAC4; HDAC4, WW01 1.5 Log nM) was 32307 Fluorescent counts and 33171 Fluorescent counts, the “HDAC Activity (Fluorescent counts)” value (HDAC4; HDAC4, WW01 2 Log nM) was 34170 Fluorescent counts and 33741 Fluorescent counts and the “HDAC Activity (Fluorescent counts)” value (HDAC4; HDAC4, WW01 2.5 Log nM) was 30594 Fluorescent counts and 30410 Fluorescent counts. For the same compound, the “HDAC Activity (Fluorescent counts)” value (HDAC4; HDAC4, WW01 3 Log nM) was 29955 Fluorescent counts and 29639 Fluorescent counts, the “HDAC Activity (Fluorescent counts)” value (HDAC4; HDAC4, WW01 3.5 Log nM) was 26541 Fluorescent counts and 27641 Fluorescent counts and the “HDAC Activity (Fluorescent counts)” value (HDAC4; HDAC4, WW01 4 Log nM) was 24902 Fluorescent counts and 23203 Fluorescent counts. The “HDAC Activity (Fluorescent counts)” value (HDAC4; HDAC4, WW01 -0.5 Log nM) was 34466 Fluorescent counts and 34397 Fluorescent counts, the IC50 (HDAC4; [6]) was > 10000 nM and the “HDAC Activity (Fluorescent counts)” value (HDAC9; HDAC9, WW01 0 Log nM) was 15707 Fluorescent counts and 17505 Fluorescent counts. For the same compound, the “HDAC Activity (Fluorescent counts)” value (HDAC9; HDAC9, WW01 0.5 Log nM) was 15735 Fluorescent counts and 16677 Fluorescent counts, the “HDAC Activity (Fluorescent counts)” value (HDAC9; HDAC9, WW01 1 Log nM) was 15823 Fluorescent counts and 16968 Fluorescent counts and the “HDAC Activity (Fluorescent counts)” value (HDAC9; HDAC9, WW01 1.5 Log nM) was 15598 Fluorescent counts and 16390 Fluorescent counts. The “HDAC Activity (Fluorescent counts)” value (HDAC9; HDAC9, WW01 2 Log nM) was 15941 Fluorescent counts and 16116 Fluorescent counts, the “HDAC Activity (Fluorescent counts)” value (HDAC9; HDAC9, WW01 2.5 Log nM) was 14685 Fluorescent counts and 15111 Fluorescent counts and the “HDAC Activity (Fluorescent counts)” value (HDAC9; HDAC9, WW01 3 Log nM) was 14898 Fluorescent counts and 14972 Fluorescent counts. For the same compound, the “HDAC Activity (Fluorescent counts)” value (HDAC9; HDAC9, WW01 3.5 Log nM) was 13364 Fluorescent counts and 15040 Fluorescent counts, the “HDAC Activity (Fluorescent counts)” value (HDAC9; HDAC9, WW01 4 Log nM) was 14972 Fluorescent counts and 13303 Fluorescent counts and the “HDAC Activity (Fluorescent counts)” value (HDAC9; HDAC9, WW01 -0.5 Log nM) was 15619 Fluorescent counts and 16563 Fluorescent counts. For the same compound, the IC50 (HDAC9; [6]) was > 10000 nM, the IC50 [1] was 3 nM and the IC50 [2] was 80 nM. For the same compound, the IC50 [3] was 140 nM, the IC50 [4] was 1300 nM and the “GLI1 binding to immobilized oligos with consensus GLI binding sequence” value [5] was “loss of GLI1 binding”.
